Measured values reported in patent US4548818A, “Composition and methods for the treatment of chronic obstructive airway disease and cardiac disease using 3-alkylxanthines” (priority 1978, dated 1985).
Read-outs that look alike come from different tables or passages of the source.

What was measured:
Guinea-pig trachea = assay: Isolated guinea-pig trachea (relaxation of carbacholine-contracted tracheal muscle); details: >1 more potent than theophylline; for Guinea-Pig trachea Potency rations of theophylline: Table II, molar potency ratio from EC50 values (50% maximum response), theophylline = 1 by definition, carbacholine 0.1 μg/ml; for Guinea-pig Tracheal Preparation Potency: Table III, potency ratio from EC50 values, theophyllin = 1 by definition
Description: Guinea-pigs of both sexes, weighing between 150 and 250 g, were killed by a blow on the head and bled. The trachea was removed and cut spirally yielding one or two preparations. The tracheal preparations were mounted in organ baths containing Krebs solution maintained at 37° C. and bubbled with carbogen (95% O2 +5% CO2). Isometric tension reflecting the activity in circular tracheal muscle was recorded by means of a force displacement transducer. Initial tension was set at 0.5 g which was the approximate basal tension kept during the experiment. Evaluation of relaxant effects was done when the preparations had contracted to a stable tension by the addition of carbacholine 0.1 μg/ml to the bath. […] After washing out the drugs the trachea resumed its basal tone and was left to stabilize for at least 15 min. before the next drug evaluation was performed. Between two evaluations of theophylline the effect of the test drug was examined and its EC50 value was compared with the mean of the previous and following EC50 values of theophylline.
(§1) The left column lists molar potency ratios for bronchodilatation between theophylline and various xanthine compounds. Toxic symptoms occuring before death in mice receiving constant rate infusion of drug i.v. are accounted for in the middle column. […] The far right column indicates cardiotonic activity as positive chronotropic potency.
The guinea-pig trachea were prepared as was discribed previously. Isomeric tension reflecting the activity in circular tracheal muscle was recorded by a force displacement transducer.

Guinea-pig heart = assay: Isolated guinea-pig hearts (Langendorff), chronotropic potency; details: Table II; positive chronotropic potency; theophylline = 1
Description: From the bled guinea-pigs, the hearts were immediately removed and perfused with oxygenated Krebs solution at 37° according to Langendorff. The heart was mounted in a thermostatically controlled organ bath (25 ml) containing Krebs solution. A saline-filled, open-end polyethylene catheter was inserted into the right ventricle through the pulmonary artery. The catheter was fixed to the pulmonary artery by a ligature just above the valvular plane. It was connected to a pressure transducer (P23 AC), making it possible to record changes in intraventricular pressure. From these, the contraction frequency was obtained. Drugs were given as single bolus injections into the perfusion solution.
as §1

[1] = Source text: as §1
[2] = Acute toxicity studies in mice (intravenous and oral); assay type: in vivo, male NMRI mice; details: i.v. or oral, observed 14 days
Description: Male NMRI mice, weighing 20-26 g. starved for 6 h were used. The compounds, dissolved in 0.5M NaOH and 0.85% NaCl-solution (pH 10.6-12.1) were administered as follows:
(a) intravenously, 0.1 ml/10 g at an injection rate of 0.3 ml per minute
At least seven dose levels, doses increasing in a geometric progression with a factor 1.2, were examined. Each dose was given to 5 animals. […] The position of extremities in dead animals indicated whether they had died in convulsions or not.

[3] = constant rate i.v. infusion, type of convulsion as in the effects column
[4] = toxic symptoms before death, constant rate i.v. infusion

SMILES	Guinea-Pig trachea Potency rations of theophylline (Guinea-pig trachea)	Guinea-Pig heart Potency ratios of theophylline, Chronotrop (Guinea-pig heart)	Convulsion test mice i.v., Death ([1]; constant rate i.v. infusion) [mg/kg i.v.]	Guinea-pig Tracheal Preparation Potency (Guinea-pig trachea)	further results
Cn1c(=O)c2c(ncn2C)n(C)c1=O [Caffeine, caffeine, reference compound]	1	0.5	391.7 ± 17.7	–	Convulsion test mice i.v., number of animals with convulsions / animals tested [1, 3]: 20/20; Convulsion test mice i.v., number of animals with convulsions / animals tested ([1]; constant rate i.v. infusion, type of convulsion as in the effects column, listed as caffeine): 20 out of 20; Convulsion test mice i.v., Effects [1, 4]: tonic conv.; Convulsion test mice i.v., Effects ([1]; toxic symptoms before death, constant rate i.v. infusion, listed as caffeine): consistently produced tonic convulsions
CC(C)(C)Cn1c(=O)[nH]c(=O)c2[nH]cnc21 [D 4034, 3,7-dihydro-3-(2,2-dimethylpropyl)-1H-purine-2,6-dione]	3	3	519.1 ± 16.6	3.0	–
Cc1nc2c([nH]1)c(=O)[nH]c(=O)n2CC(C)(C)C [D 4070, 3,7-dihydro-3-(2,2-dimethylpropyl)-8-methyl-1H-purine-2,6-dione]	1.8	1.5	693.3 ± 22.2	1.8	Convulsion test mice i.v., Effects ([1]; mouse, in vivo, iv): loss of balance
O=c1[nH]c(=O)n(CCO)c2nc[nH]c12 [D 4077, reference compound]	–	–	–	0.1	–
CC(O)Cn1c(=O)[nH]c(=O)c2[nH]cnc21 (stereo not drawn) [D 4083, reference compound]	–	–	–	0.1	–
Cc1nc2c([nH]1)c(=O)[nH]c(=O)n2CC(C)O (stereo not drawn) [D 4125, reference compound]	–	–	–	0.4	–
O=c1[nH]c(=O)n(C2CCCC2)c2nc[nH]c12 [D 4132, 3-cyclopentyl-3,7-dihydro-1H-purine-2,6-dione]	5.65	3.4	593 ± 21.9	–	–
Cc1nc2c([nH]1)c(=O)[nH]c(=O)n2C1CCCC1 [D 4134, 3-cyclopentyl-3,7-dihydro-8-methyl-1H-purine-2,6-dione]	5.85	–	–	–	–
Cc1nc2c([nH]1)c(=O)[nH]c(=O)n2CC1CCCCC1 [D 4137, 3,7-dihydro-8-methyl-3-cyclohexylmethyl-1H-purine-2,6-dione]	4	10	493.1 ± 19.4	–	–
O=c1[nH]c(=O)n(CC2CCCCC2)c2nc[nH]c12 [D 4138, 3,7-dihydro-3-cyclohexylmethyl-1H-purine-2,6-dione]	5	15	543.6 ± 31.7	–	–
O=c1[nH]c(=O)n(C2CC2)c2nc[nH]c12 [D 4161, 3-cyclopropyl-3,7-dihydro-1H-purine-2,6-dione]	0.5	–	1030 ± 39.3	–	Convulsion test mice i.v., number of animals with convulsions / animals tested ([1]; mouse, in vivo, iv): 1/10
O=c1[nH]c(=O)n(C2CCC2)c2nc[nH]c12 [D 4164, 3-cyclobutyl-3,7-dihydro-1H-purine-2,6-dione]	3.8	2.1	519.2 ± 16.86	–	Convulsion test mice i.v., number of animals with convulsions / animals tested ([1]; mouse, in vivo, iv): 3/10
Cc1nc2c([nH]1)c(=O)[nH]c(=O)n2CC(C)C [D 4169, 3,7-dihydro-8-methyl-3-(2-methylpropyl)-1H-purine-2,6-dione]	–	–	–	3.3	–
O=c1[nH]c(=O)n(CCCO)c2nc[nH]c12 [D 4184, reference compound]	–	–	–	0.1	–
Cn1c(=O)c2[nH]cnc2n(C)c1=O [Theophylline, theophylline, reference compound]	–	–	446.3 ± 9.6	1.0	Convulsion test mice i.v., number of animals with convulsions / animals tested [1, 3]: 30/30; Convulsion test mice i.v., number of animals with convulsions / animals tested ([1]; constant rate i.v. infusion, type of convulsion as in the effects column, listed as theophylline): 30 out of 30; Convulsion test mice i.v., Effects [1, 4]: tonic conv.; Convulsion test mice i.v., Effects ([1]; toxic symptoms before death, constant rate i.v. infusion, listed as theophylline): consistently produced tonic convulsions; Convulsive activity in acute toxicity studies [2]: repeatedly shown to occur
